Experimental data published in patent US20040229942A1, “Analeptic and antidepressant combinations” (Cephalon Inc, priority 2003, published 2004).

How the values were obtained:
[1] = test system: major depressive disorder; details: at 6 weeks; cited from earlier work
canines = canines (Shelton et al., 1995); cited from earlier work
[2] = test system: patients previously diagnosed with MDD (single episode or recurrent); assay: Clinical study: modafinil started together with an SSRI (fluoxetine or paroxetine) in MDD patients, depressive symptom assessment (HAMD-21, HAMD-31, response, remission); details: human, in vivo
Description: Eligible patients were previously diagnosed with MDD (single episode or recurrent), […] had significant fatigue (Fatigue Severity Scale [FSS] score of greater than or equal to 4), and had not taken antidepressant therapy for greater than or equal to 4 weeks. Patients were evaluated at screening, baseline (shown in Table 1), and weeks 1, 2, 3, 4, 5, and 6.
Patients were then started on a combination of an SSRI and modafinil.
Modafinil was initiated at 100 mg/day for 3 days and then titrated to 200 mg/day, depending on response and tolerability. SSRI therapy was either fluoxetine or paroxetine administered at 20 mg/day for 6 weeks.
Depressive symptom changes were analyzed using HAMD-31, each of which were videotaped and rated independently, and HAMD-21 total score evaluations. HAMD-21 total score analyses were also performed to evaluate response and remission rates. Changes in fatigue were assessed using the FSS. A fatigue response was defined as an FSS score of less than 4 at any post-baseline visit. […] Subjective sleepiness was assessed using the Epworth Sleepiness Scale (ESS). […] Symptoms associated with depression, including fatigue, mood, motivation, and concentration, were evaluated using patient-assessed Visual Analogue Scales (VAS).
Continuous variables were analyzed using a paired t-test for normally distributed data or Wilcoxon signed rank test for non-normal data. […]

cats = cats (Lin et al., 1992); cited from earlier work
non-human primates = non-human primates (Hernant et al, 1991); cited from earlier work
rats = rats (Touret et al., 1995; Edgar and Seidel, 1997); cited from earlier work

SMILES | response to antidepressant therapy [1] | wakefulness (canines) | overall conclusion on adjuvant effect in patients with depression and significant fatigue [2] | wakefulness (cats) | wakefulness (non-human primates) | wakefulness (rats)
CNCCC(Oc1ccc(C(F)(F)F)cc1)c1ccccc1 (stereo not drawn) [fluoxetine] | about 50% |  |  |  |  | 
NC(=O)C[S+]([O-])C(c1ccccc1)c1ccccc1 (stereo not drawn) [Modafinil, 2-(benzhydrylsulfinyl) acetamide] |  | promotes wakefulness | rapid-acting and effective adjuvant medication | promotes wakefulness | promotes wakefulness | promotes wakefulness
